What all share (assay type): biochemical
The target of one test is JAK1-JH1JH2 (Homo sapiens (Human), UniProt P23458). In words: Enzymatic inhibition assay (RapidFire HTMS), JAK1. Particulars: 12.5 μM ATP, 200 μM substrate; read-out: JAK1-JH2JH1 IC50. The essentials:
(§1)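 Quenched with 0.5% TFA plus internal-standard peptide; phosphorylated product quantified by RapidFire C4 SPE–ESI-MS, 11-point 1:3 or 1:4 dilutions in duplicate.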

A further test has as its target JAK2-JH1JH2 (Homo sapiens (Human), UniProt O60674). In words: Enzymatic inhibition assay (RapidFire HTMS), JAK2. Particulars: 30 μM ATP, 40 μM substrate. The gist of the method: as §1
The next test deals with JAK3-JH1JH2 (Homo sapiens (Human), UniProt P52333). In words: Enzymatic inhibition assay (RapidFire HTMS), JAK3. The note with it: 150 μM ATP, 40 μM substrate. The gist of the method: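 JAK3 JH1JH2 reaction incubated 45 min at 25 °C, then quenched with 0.5% TFA containing 0.15 μM internal standard peptide. Phosphopeptide product measured by RapidFire C4 SPE–ESI MS (positive mode); inhibition from product decrease versus uninhibited enzyme, 11-point 1:3 or 1:4 dilutions in duplicate.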
Chain of JAK3-JH1JH2 (P52333 512-1124): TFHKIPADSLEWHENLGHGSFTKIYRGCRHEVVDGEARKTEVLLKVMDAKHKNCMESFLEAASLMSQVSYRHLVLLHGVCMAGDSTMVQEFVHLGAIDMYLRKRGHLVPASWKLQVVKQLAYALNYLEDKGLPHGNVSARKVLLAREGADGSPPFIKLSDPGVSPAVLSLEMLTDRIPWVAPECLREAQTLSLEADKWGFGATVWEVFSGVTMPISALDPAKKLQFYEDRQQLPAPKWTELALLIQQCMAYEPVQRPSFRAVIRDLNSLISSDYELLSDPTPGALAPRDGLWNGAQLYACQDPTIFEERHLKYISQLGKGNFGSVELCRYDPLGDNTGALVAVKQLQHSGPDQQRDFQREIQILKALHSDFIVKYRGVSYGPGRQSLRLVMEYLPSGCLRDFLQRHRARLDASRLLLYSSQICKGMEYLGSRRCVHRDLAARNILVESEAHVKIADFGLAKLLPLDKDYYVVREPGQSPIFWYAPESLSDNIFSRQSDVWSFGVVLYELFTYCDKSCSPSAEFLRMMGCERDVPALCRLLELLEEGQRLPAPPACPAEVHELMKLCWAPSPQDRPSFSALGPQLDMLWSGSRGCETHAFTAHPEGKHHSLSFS

The next test deals with Tyk2-JH1JH2 (Homo sapiens (Human), UniProt P29597, C1142A/C936A). Description: Enzymatic inhibition assay (RapidFire HTMS), Tyk2. The note with it: 50 μM ATP, 200 μM substrate. The essentials:
as §1

Chain of JAK2-JH1JH2 (O60674 532-1132): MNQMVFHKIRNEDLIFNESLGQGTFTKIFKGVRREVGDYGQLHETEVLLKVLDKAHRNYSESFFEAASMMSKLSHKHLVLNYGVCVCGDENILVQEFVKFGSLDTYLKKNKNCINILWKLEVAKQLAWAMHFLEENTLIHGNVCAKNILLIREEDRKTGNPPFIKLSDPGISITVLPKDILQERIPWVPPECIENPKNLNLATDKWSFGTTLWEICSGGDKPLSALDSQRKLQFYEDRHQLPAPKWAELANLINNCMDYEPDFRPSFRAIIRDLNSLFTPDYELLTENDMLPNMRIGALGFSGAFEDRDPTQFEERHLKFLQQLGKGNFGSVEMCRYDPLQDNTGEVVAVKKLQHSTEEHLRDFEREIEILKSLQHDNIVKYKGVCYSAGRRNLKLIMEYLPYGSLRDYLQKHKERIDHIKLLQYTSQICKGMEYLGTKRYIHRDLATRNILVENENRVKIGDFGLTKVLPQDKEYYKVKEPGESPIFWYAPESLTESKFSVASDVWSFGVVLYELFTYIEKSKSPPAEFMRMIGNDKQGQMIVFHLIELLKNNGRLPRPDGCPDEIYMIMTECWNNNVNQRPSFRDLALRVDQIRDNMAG
Chain of JAK1-JH1JH2 (P23458 574-1154): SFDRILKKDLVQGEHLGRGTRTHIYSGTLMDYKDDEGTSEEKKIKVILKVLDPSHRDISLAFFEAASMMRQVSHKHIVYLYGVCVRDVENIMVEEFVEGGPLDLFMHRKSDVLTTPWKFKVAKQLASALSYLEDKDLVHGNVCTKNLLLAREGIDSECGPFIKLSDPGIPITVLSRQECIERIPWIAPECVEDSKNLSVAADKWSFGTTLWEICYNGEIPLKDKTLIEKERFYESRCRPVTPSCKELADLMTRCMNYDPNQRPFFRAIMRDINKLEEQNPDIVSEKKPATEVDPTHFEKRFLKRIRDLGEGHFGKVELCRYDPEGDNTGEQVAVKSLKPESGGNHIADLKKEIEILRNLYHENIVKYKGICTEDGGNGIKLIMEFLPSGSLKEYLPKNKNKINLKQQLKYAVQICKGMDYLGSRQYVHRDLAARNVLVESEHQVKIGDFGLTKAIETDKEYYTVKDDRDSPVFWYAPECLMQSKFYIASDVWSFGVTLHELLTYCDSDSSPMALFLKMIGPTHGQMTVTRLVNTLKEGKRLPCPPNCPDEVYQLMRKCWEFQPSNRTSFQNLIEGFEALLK
Chain of Tyk2-JH1JH2 (P29597 580-1182 C936A/C1142A): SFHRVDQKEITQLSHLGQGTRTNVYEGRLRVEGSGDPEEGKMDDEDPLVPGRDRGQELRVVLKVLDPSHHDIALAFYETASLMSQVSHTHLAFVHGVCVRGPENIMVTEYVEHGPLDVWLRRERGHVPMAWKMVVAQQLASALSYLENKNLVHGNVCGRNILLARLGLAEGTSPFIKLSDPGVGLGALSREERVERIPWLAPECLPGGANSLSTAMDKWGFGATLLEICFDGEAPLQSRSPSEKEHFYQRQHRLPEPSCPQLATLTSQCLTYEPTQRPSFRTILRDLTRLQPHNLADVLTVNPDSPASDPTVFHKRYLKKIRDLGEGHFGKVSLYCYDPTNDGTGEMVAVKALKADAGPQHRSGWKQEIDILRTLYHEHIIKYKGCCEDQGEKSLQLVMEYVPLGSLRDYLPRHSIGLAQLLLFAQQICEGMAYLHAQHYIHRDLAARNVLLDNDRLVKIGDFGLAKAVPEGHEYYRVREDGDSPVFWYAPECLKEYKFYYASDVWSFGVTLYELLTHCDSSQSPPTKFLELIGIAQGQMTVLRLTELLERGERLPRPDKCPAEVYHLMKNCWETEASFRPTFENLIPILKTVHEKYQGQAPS

Turning to `N#CC[C@H]1CC[C@H](n2c(Cc3cscn3)nc3cnc4[nH]ccc4c32)CC1` [Ex. 41, 2-((1r,4r)-4-(2-(Thiazol-4-ylmethyl)imidazo[4,5-d]pyrrolo[2,3-b]pyridin-1(6H)-yl)cyclohexyl)acetonitrile], the IC50 is < 0.2 nM at JAK1-JH1JH2, 0.4 nM on JAK2-JH1JH2, 19.9 nM against JAK3-JH1JH2 and 0.6 nM against Tyk2-JH1JH2.

As to `Cc1cc2c(ncc3nc(CC(=O)NCC(C)(C)O)n([C@H]4CC[C@H](CC#N)CC4)c32)[nH]1` [Ex. 191, 2-(1-((1r,4r)-4-(Cyanomethyl)cyclohexyl)-7-methyl-1,6-dihydroimidazo[4,5-d]pyrrolo[2,3-b]pyridin-2-yl)-N-(2-hydroxy-2-methylpropyl)acetamide], the 50% inhibitory concentration (IC50) at JAK1-JH1JH2 came to 1.3 nM; on JAK2-JH1JH2, 57.3 nM; against JAK3-JH1JH2 it was 1340 nM; against Tyk2-JH1JH2, 20.6 nM.

Take `N#CC[C@H]1CC[C@H](n2c(-c3cnn(CC(=O)NC4CC4)c3)nc3cnc4[nH]ccc4c32)CC1` [Ex. 185, 2-(4-(1-((1r,4r)-4-(Cyanomethyl)cyclohexyl)-1,6-dihydroimidazo[4,5-d]pyrrolo[2,3-b]pyridin-2-yl)-1H-pyrazol-1-yl)-N-cyclopropylacetamide]: the half-maximal inhibitory concentration (IC50) at JAK1-JH1JH2 is 2.1 nM; on JAK2-JH1JH2, 19.8 nM; against JAK3-JH1JH2 it was 150 nM; on Tyk2-JH1JH2, 36.4 nM.

For `CC(C)(O)CNC(=O)Cc1nc2cnc3[nH]cc(Cl)c3c2n1[C@H]1CC[C@H](CC#N)CC1` [Ex. 188, 2-(8-chloro-1-((1r,4r)-4-(cyanomethyl)cyclohexyl)-1,6-dihydroimidazo[4,5-d]pyrrolo[2,3-b]pyridin-2-yl)-N-(2-hydroxy-2-methylpropyl)acetamide], the half-maximal inhibitory concentration (IC50) at JAK1-JH1JH2 is 3.2 nM; at JAK2-JH1JH2, 36.7 nM; on JAK3-JH1JH2, 13.1 nM; against Tyk2-JH1JH2, 122 nM.

In the case of `N#CC[C@H]1CC[C@H](n2c(CNC(=O)Oc3ccccc3)nc3cnc4[nH]ccc4c32)CC1` [Ex. 46, Phenyl ((1-((1r,4r)-4-(cyanomethyl)cyclohexyl)-1,6-dihydroimidazo[4,5-d]pyrrolo[2,3-b]pyridin-2-yl)methyl)carbamate], the IC50 came out at 0.2 nM on JAK1-JH1JH2, 14.5 nM on JAK2-JH1JH2, 214 nM at JAK3-JH1JH2 and 5.5 nM against Tyk2-JH1JH2.

In the case of `C#Cc1ccc(C(=O)c2ccc(OCc3nc4cnc5[nH]ccc5c4n3[C@H]3CC[C@H](CC#N)CC3)cc2)cc1` [Ex. 130, 2-((1r,4r)-4-(2-((4-(4-Ethynylbenzoyl)phenoxy)methyl)imidazo[4,5-d]pyrrolo[2,3-b]pyridin-1(6H)-yl)cyclohexyl)acetonitrile], the 50% inhibitory concentration (IC50) on JAK1-JH1JH2 turned out to be 0.8 nM; at JAK2-JH1JH2, 15.7 nM; against JAK3-JH1JH2, 130 nM; against Tyk2-JH1JH2 it was 19.4 nM.

Take `CN1CCC(NC(=O)Cc2nc3cnc4[nH]ccc4c3n2[C@H]2CC[C@H](CC#N)CC2)CC1` [Ex. 66, 2-(1-((1r,4r)-4-(Cyanomethyl)cyclohexyl)-1,6-dihydroimidazo[4,5-d]pyrrolo[2,3-b]pyridin-2-yl)-N-(1-methylpiperidin-4-yl)acetamide]: the IC50 at JAK1-JH1JH2 was 0.3 nM; on JAK2-JH1JH2 it was 2.5 nM; against JAK3-JH1JH2, 18.9 nM; against Tyk2-JH1JH2, 2.8 nM.

With `N#CC[C@H]1CC[C@H](n2c(C(=O)N3CCC(O)(c4ccccc4)C3)nc3cnc4[nH]ccc4c32)CC1` (some centres unmarked) [Ex. 50, 2-((1r,4r)-4-(2-(3-Hydroxy-3-phenylpyrrolidine-1-carbonyl)imidazo[4,5-d]pyrrolo[2,3-b]pyridin-1(6H)-yl)cyclohexyl)acetonitrile], the IC50 was found to be 0.2 nM at JAK1-JH1JH2, 4 nM on JAK2-JH1JH2, 99.9 nM against JAK3-JH1JH2 and 21 nM against Tyk2-JH1JH2.

As for `N#CC[C@H]1CC[C@H](n2c(CC(=O)N[C@H]3CC[C@@H](O)CC3)nc3cnc4[nH]ccc4c32)CC1` [Ex. 47, 2-(1-((1r,4r)-4-(Cyanomethyl)cyclohexyl)-1,6-dihydroimidazo[4,5-d]pyrrolo[2,3-b]pyridin-2-yl)-N-((1S,4S)-4-hydroxycyclohexyl)acetamide], the IC50 was found to be 0.2 nM on JAK1-JH1JH2, 2.3 nM on JAK2-JH1JH2, 38.9 nM at JAK3-JH1JH2 and 5.1 nM against Tyk2-JH1JH2.

For the compound `COCCNC(=O)Cc1nc2cnc3[nH]ccc3c2n1[C@H]1CC[C@H](CC#N)CC1` [Ex. 120, 2-(1-((1r,4r)-4-(Cyanomethyl)cyclohexyl)-1,6-dihydroimidazo[4,5-d]pyrrolo[2,3-b]pyridin-2-yl)-N-(2-methoxyethyl)acetamide], the IC50 stood at 0.7 nM on JAK1-JH1JH2, 16 nM against JAK2-JH1JH2, 228 nM at JAK3-JH1JH2 and 19.1 nM against Tyk2-JH1JH2.

For `N#CC[C@H]1CC[C@H](n2c(CC(=O)NC3CC4CCC3C4)nc3cnc4[nH]ccc4c32)CC1` (stereo partly drawn) [Ex. 78, N-((1S,4R)-Bicyclo[2.2.1]heptan-2-yl)-2-(1-((1r,4r)-4-(cyanomethyl)cyclohexyl)-1,6-dihydroimidazo[4,5-d]pyrrolo[2,3-b]pyridin-2-yl)acetamide], the IC50 on JAK1-JH1JH2 stood at 0.4 nM; on JAK2-JH1JH2, 11.2 nM; against JAK3-JH1JH2, 69.4 nM; at Tyk2-JH1JH2, 13.4 nM.

Consider `[H]/N=C(/c1ccccc1)N(O)Cc1nc2cnc3[nH]ccc3c2n1[C@H]1CC[C@H](CC#N)CC1` [Ex. 17B, (Z)—N-((1-((1r,4r)-4-(Cyanomethyl)cyclohexyl)-1,6-dihydroimidazo[4,5-d]pyrrolo[23-b]pyridin-2-yl)methyl)-N-hydroxybenzimidamide], for which the IC50 at JAK1-JH1JH2 turned out to be 0.5 nM; against JAK2-JH1JH2, 4.5 nM; against JAK3-JH1JH2, 102 nM; on Tyk2-JH1JH2, 2.9 nM.

As to `N#CC[C@H]1CC[C@H](n2c(C(=O)NC3COC3)nc3cnc4[nH]ccc4c32)CC1` [Ex. 122, 1-((1r,4r)-4-(Cyanomethyl)cyclohexyl)-N-(oxetan-3-yl)-1,6-dihydroimidazo[4,5-d]pyrrolo[2,3-b]pyridine-2-carboxamide], the IC50 on JAK1-JH1JH2 came out at 0.7 nM; against JAK2-JH1JH2 it was 20.8 nM; at JAK3-JH1JH2, 437 nM; at Tyk2-JH1JH2, 21.6 nM.

Take `N#CC[C@H]1CC[C@H](n2c(CC(=O)NC34CC5CC(CC(C5)C3)C4)nc3cnc4[nH]ccc4c32)CC1` [Ex. 32, N-((3R,5R)-Adamantan-1-yl)-2-(1-((1r,4r)-4-(cyanomethyl)cyclohexyl)-1,6-dihydroimidazo[4,5-d]pyrrolo[2,3-b]pyridin-2-yl)acetamide]: the IC50 at JAK1-JH1JH2 is 0.2 nM; against JAK2-JH1JH2 it was 1.3 nM; at JAK3-JH1JH2 it was 59.3 nM; against Tyk2-JH1JH2 it was 2.8 nM.

For `N#CC[C@H]1CC[C@H](n2c(CC(N)=O)nc3cnc4[nH]ccc4c32)CC1` [Ex. 201, 2-(1-((1r,4r)-4-(Cyanomethyl)cyclohexyl)-1,6-dihydroimidazo[4,5-d]pyrrolo[2,3-b]pyridin-2-yl)acetamide], the IC50 on JAK1-JH1JH2 is < 4 nM; on JAK2-JH1JH2 it was 1.9 nM; at JAK3-JH1JH2, 47.5 nM; against Tyk2-JH1JH2, 1.1 nM.

On to `N#CC[C@H]1CC[C@H](n2c(CC(=O)N3CCC[C@@H]3CO)nc3cnc4[nH]ccc4c32)CC1` [Ex. 149, 2-((1r,4r)-4-(2-(2-((R)-2-(Hydroxymethyl)pyrrolidin-1-yl)-2-oxoethyl)imidazo[4,5-d]pyrrolo[2,3-b]pyridin-1(6H)-yl)cyclohexyl)acetonitrile], for which the half-maximal inhibitory concentration (IC50) on JAK1-JH1JH2 is 1.1 nM; on JAK2-JH1JH2, 54.4 nM; on JAK3-JH1JH2, 926 nM; at Tyk2-JH1JH2 it was 13.9 nM.

Take `C[S@](=O)(=NCc1nc2cnc3[nH]ccc3c2n1[C@H]1CC[C@H](CC#N)CC1)c1ccccc1` [Ex. 162, 2-((1r,4r)-4-(2-((((R)-Methyl(oxo)(phenyl)-λ^6-sulfanylidene)amino)methyl)imidazo[4,5-d]pyrrolo[2,3-b]pyridin-1(6H)-yl)cyclohexyl)acetonitrile]: the 50% inhibitory concentration (IC50) on JAK1-JH1JH2 turned out to be 1.6 nM; against JAK2-JH1JH2, 113 nM; against JAK3-JH1JH2, 2270 nM; on Tyk2-JH1JH2 it was 81.7 nM.

`N#CC[C@H]1CC[C@H](n2c(CC(=O)N3CCC(CO)CC3)nc3cnc4[nH]ccc4c32)CC1` [Ex. 73, 2-((1r,4r)-4-(2-(2-(4-(Hydroxymethyl)piperidin-1-yl)-2-oxoethyl)imidazo[4,5-d]pyrrolo[2,3-b]pyridin-1(6H)-yl)cyclohexyl)acetonitrile]: the IC50 on JAK1-JH1JH2 amounted to 0.4 nM; at JAK2-JH1JH2, 19.9 nM; against JAK3-JH1JH2, 199 nM; on Tyk2-JH1JH2 it was 6.3 nM.

For the compound `Cc1c[nH]c2ncc3nc(CC(=O)NCC(C)(C)O)n([C@H]4CC[C@H](CC#N)CC4)c3c12` [Ex. 190, 2-(1-((1r,4r)-4-(cyanomethyl)cyclohexyl)-8-methyl-1,6-dihydroimidazo[4,5-d]pyrrolo[2,3-b]pyridin-2-yl)-N-(2-hydroxy-2-methylpropyl)acetamide], the IC50 came out at 12.4 nM at JAK1-JH1JH2, 150 nM on JAK2-JH1JH2, 102 nM against JAK3-JH1JH2 and 458 nM against Tyk2-JH1JH2.

With `N#CCC12CCC(n3c(CC(=O)N4CCCCC4)nc4cnc5[nH]ccc5c43)(CC1)CC2` [Ex. 205, 2-(4-(2-(2-Oxo-2-(piperidin-1-yl)ethyl)imidazo[4,5-d]pyrrolo[2,3-b]pyridin-1(6H)-yl)bicyclo[2.2.2]octan-1-yl)acetonitrile], the IC50 on JAK1-JH1JH2 was 5.3 nM; against JAK2-JH1JH2, 487 nM; on JAK3-JH1JH2, 439 nM; against Tyk2-JH1JH2, 606 nM.

The IC50 is the point on the concentration scale where inhibition reaches its midpoint.
